Patent publication US20100256090A1, “Alginic Acid with Low Molecular Weight, Its Salts, Uses, Preparative Methods, Pharmaceutical Compositions and Foods” (priority 2007, published 2010)

What was measured:
hypertension subjects [1] = experiment: Clinical Example 1: blood pressure of hypertension subjects after oral granule or enteric capsule; type: in vivo, human
Description: This clinical example explains the effects of the low molecular weight alginate salts of the present invention and the effects of the low molecular weight alginate salts of the comparative example in improving hypertension.
Male and female hypertension subjects without other disease were selected, 360 for each sex, aged from 38 to 62 with an average age of 48, whose systolic blood pressure (SBP)(s) were from 155 to 165 mmHg and diastolic blood pressure (DBP)(s) were from 100 to 125 mmHg, said SBP(s) and DBP(s) were measured in resting state. The subjects were randomly grouped, 30 subjects for each group, and orally took granule of low molecular weight potassium alginate or enteric capsule of alginic acid with low molecular weight 1 to 3 times per day with a daily dose of 50 to 200 mg/Kg according to Table 2, and blood pressures before and 24 hours after administration were measured. The granule of low molecular weight potassium alginate was prepared in the following way: potassium alginate was prepared using the alginic acid with low molecular weight according to examples 1 to 10 or comparative example 1, and then the potassium alginate was prepared into granule according to the method of example 11 or comparative example 2. The enteric capsule of alginic acid with low molecular weight was prepared according to the method of example 11 or comparative example 2. Criterion of therapeutical effect made by China Hypertension League was referred to, that is, the systolic blood pressure reduces by more than 15 mmHg and the diastolic blood pressure reduces by more than 10 mmHg 24 hours after the administration.

hypertension subjects [2] = experiment: Clinical Example 7: blood pressure of hypertension subjects taking milk powder with potassium alginate; type: in vivo, human; settings: conclusion from Table 8, one month use of milk powder
Protocol: This clinical example explains the effects of the low molecular weight alginate salt of the present invention and the effects of the low molecular weight alginate salt of the comparative example in reducing hypertension when they are added into milk powder.
Fresh milk containing 8 wt % of solid content was added with potassium alginate until the content of the potassium alginate reached 25 wt % in term of the solid content weight, the milk was then spray dried at 150° C. to obtain a milk powder.
Male and female hypertension subjects without other disease were selected, 48 for each sex, aged from 40 to 65 with an average age of 54, whose SBP(s) were from 145 to 155 mmHg and DBP(s) were from 120 to 125 mmHg, said SBP(s) and DBP(s) were measured in resting state. The subjects were randomly grouped, 8 subjects for each group, and took the milk power after infusing it, wherein the daily dose of potassium alginate reached 10 to 30 mg/Kg and the milk power was taken continuously for one month.

[3] = system: Male Wister rats feed with high lipid diet; experiment: Clinical Example 6: prevention of blood lipid increase in rats on high lipid diet; type: in vivo; settings: conclusion from Table 7, one month
Protocol: This clinical example explains the effects of the low molecular weight alginate salt of the present invention and the effects of the low molecular weight alginate salt of the comparative example in preventing increase of blood lipid when they are added into high lipid diet.
Male Wister rats weighted from 180 to 200 g were randomly divided into 13 groups, 8 for each group, wherein one group was designated as a blank group and feed with normal diet, one group was designated as a control group and feed with a high lipid diet comprising 1 wt % of cholesterol, 0.5 wt % of cholate, 10 wt % of lard oil and 10 wt % of yolk, and the remaining groups were feed with the high lipid diet and were given through stomach the potassium alginate aqueous solution according to the present invention for three times every day such that the daily intake of potassium alginate for each rat reached […]. After one month of feeding, lipoprotein in serum, total cholesterol (TC), triglyeride (TG), high density lipoprotein cholesterol (HDL-C) and low density lipoprotein cholesterol as well as very low density lipoprotein cholesterol [(LDL+VLDL)-C] were measured using enzymatic methods commonly used in the clinic (for example, CHOD-PAP to measure TC and GPO-PAP to measure TG), and the results are shown in Table 7.

| Compound | effective rate (hypertension subjects [1]; effective: SBP reduces by more than 15 mmHg and DBP by more than 10 mmHg 24 hours after administration, oral) [%] | average SBP before administration (hypertension subjects [1]; first number of SBP/DBP, baseline, resting state, hypertension subjects, 30 per group) [mmHg] | average SBP after administration 24 h (hypertension subjects [1]; first number of SBP/DBP, oral, 1 to 3 times per day, daily dose 50 to 200 mg/Kg per Table 2, 24 hours after administration) [mmHg] | average DBP before administration (hypertension subjects [1]; second number of SBP/DBP, baseline, resting state, hypertension subjects, 30 per group) [mmHg] | average DBP after administration 24 h (hypertension subjects [1]; second number of SBP/DBP, oral, 1 to 3 times per day, daily dose 50 to 200 mg/Kg per Table 2, 24 hours after administration) [mmHg] | blood pressure reducing effect (in words) (hypertension subjects [2]) | blood lipid increase preventing effect (in words) [3] |
| --- | --- | --- | --- | --- | --- | --- | --- |
| NS(=O)(=O)c1cc2c(cc1Cl)NCNS2(=O)=O [Positive Control, Hydrochlorothiazide] | 70.1 | 162 | 121 | 118 | 95 |  |  |
| alginic acid with low molecular weight [Comparative Example 1] |  |  |  |  |  | inferior | inferior |
